By melting point is commonly meant the temperature of the solid-liquid transition.

`CCOC(=O)C1=C(C)NC(c2nccn2Cc2ccccc2)=NC1c1ccc(F)cc1` (centres undefined): the melting point was 162 to 164 °C.

The compound `Nc1nc2c(ncn2COCCCO)c(=O)[nH]1` gave a melting point of 223 °C. The figure for `O=C(O)c1cc2cc3[nH]c(=O)[nH]c3cc2[nH]1` is greater than 270 °C; for `CC(C)c1ccc2nc3ccc(C(=O)OCCCCc4cccnc4)cn3c(=O)c2c1` it is 95 to 96 °C; for `CC(C)(C)OC(=O)Nc1ccc(C#Cc2ccccn2)cc1N` it is 178 °C. In turn, `O=C(/C=C/c1cccs1)Nc1ccc(-n2nc(C(F)(F)F)cc2C(F)(F)F)cc1` displayed a melting point of 216 to 218 °C.

`CN1c2ccccc2C(c2ccccc2Br)=Nc2cccnc21` yielded a melting point of 139 to 140 °C. The figure for `OCCC1CCc2cc3ccccc3n2C1` (centres undefined) is 70 to 72 °C; for `CNC(=O)c1ccccc1CCc1ccc(Br)cc1` it is 138 to 141 °C; for `O=S1(=O)c2ccccc2Oc2cc(F)ccc21` it is 174 to 176 °C. `COC(=O)c1ccc(C(=O)C#Cc2cc(-c3cccs3)c(OC)cc2OC)cc1` displayed a melting point of 198 to 200 °C. The figure for `CC12CCC3C(CCC4C(=O)CCCC43C)C1CCC2OC1CCCCO1` (centres undefined) is 123 to 126 °C; for `O=C(OC(c1ccccc1)c1ccccc1)[C@H](O)CCc1ccccc1` it is 82 to 84 °C; for `COc1ccc2cc(Br)cc(C)c2n1` it is 89 to 91 °C. As for `CN(CCc1ccccn1)C(=O)CCSc1cc(Cl)c(O)c(Cl)c1`, the figure is 120 to 123 °C. `COC(=O)C1=C(C)NC(C)=C(C(=O)OCC2(C)OCCO2)C1c1cccc([N+](=O)[O-])c1` (centres undefined) gave a melting point of 143 °C. The figure for `C=CCOc1ccc2ccc(N)nc2n1` is 138 °C. `CSc1ccc(C(=O)CCC#N)cc1` came in with a melting point of 122 to 124 °C. As for `CN1C(=O)CCCc2cc(Nc3ncc(Cl)c(Nc4ccc(N5CCOCC5)cc4C(N)=O)n3)ccc21`, the figure is 288 to 290 °C; as for `COc1ccc(C(=O)c2c(CBr)n(C(C)=O)c(=O)n2C(C)=O)cc1`, 135 to 136 °C. `O=C(O)c1c[nH]c(=S)n1C1CCc2cc(F)cc(F)c2C1` (centres undefined) came in with a melting point of 207 to 208 °C. Consider `Cc1ccccc1-n1cc(C#N)c(=O)[nH]c1=O`, for which the melting point came out at 252 °C.

Compound `C(=C\c1cccs1)/c1nc(COc2ccc(CCCn3ccnc3)cc2)co1` registered a melting point of 131 to 132 °C.

As to `Cc1oc(-c2ccccc2)nc1CCc1nc(COc2cccc(CC(=O)O)c2)cs1`, the melting point was in the range of 153 to 154 °C. The compound `Oc1cccc(-c2nc3cccc(CBr)c3o2)c1` returned a melting point of 225 to 228 °C.

Regarding `CCCc1c(OCCCCCCc2cc(OC)c(OC)c(C(C)C)c2)ccc(C(=O)O)c1O`, the melting point was 106 to 108 °C. As for `CC(=O)OC1N=C(c2ccccc2Cl)c2c(cn(C)c2C)N(C)C1=O` (centres undefined), the figure is 202 to 204 °C; as for `CS(=O)(=O)c1ccc(C(=O)Nc2ccc(Cl)c(-c3ccc(C(=O)NO)cn3)c2)c(Cl)c1`, 190 to 193 °C; as for `CC(C)OC(=O)c1ccc(NC(=O)N2CC(CCCC#N)C(c3ccc(Cl)cc3)=N2)cc1` (centres undefined), 109 to 113 °C. The figure for `CCN(CC)CCNC(=O)c1ccc(I)c2cc3ccccc3nc12` is 103 to 105 °C; for `COCCOc1cc2ncc(C#N)c(Cl)c2cc1OC` it is 178 to 180 °C. Regarding `COCCNc1nc(C2C(=O)Nc3ccc(Br)cc32)c2cn(CCOC)nc2n1` (centres undefined), the melting point was greater than 300 °C. `O=C(c1ccc(-c2ccc(=O)n(-c3ccc(F)cc3)n2)cc1)N1CCC[C@H]1CN1CCCC1`: the melting point turned out to be 177 °C. Regarding `O=C(NC(=O)c1ccccc1Br)Nc1cc(C(F)(F)F)c(Cl)cc1Br`, the melting point turned out to be 193 °C. `CSc1nc(-c2nn[nH]n2)c(I)c(C(F)(F)F)n1` showed a melting point of 196 to 200 °C. In the case of `COC(=O)c1ccc(-c2ccc(-c3ccccc3)c(-c3ccc4c(c3)C(C)(C)CCC4(C)C)c2)cc1C`, the melting point was 130 to 132 °C.

The compound `CCOC(=O)NCC1CO1` (centres undefined) had a melting point of 75 to 78 °C.

Regarding `CN(C)C=NS(=O)(=O)c1cc(CCNC(=O)C(F)(F)F)ccc1O`, the melting point lay within 160 to 161 °C. `O=C(Oc1ccccc1)c1cc(Br)nn1-c1ncccc1Cl` displayed a melting point of 65 to 67 °C.

`CCCCCCCCCCCCCCCCOCC(COCCCCCCCCCCCCCCCC)NCCC#N` registered a melting point of 45 to 46 °C. In turn, `O=C(CNC(=O)c1ccc(F)c([N+](=O)[O-])c1)OCc1ccccc1` gave a melting point of 84 to 86 °C.

For the compound `CCNC(=O)N1C[C@@H](c2c[nH]c3ccccc23)[C@H](c2cn3c4c(cccc24)CCC3)C1`, the melting point is 278 to 279 °C. As to `Nc1ccc(Cl)cc1C(O)c1ccccc1OCc1ccccc1` (centres undefined), the melting point is 120 to 121 °C. For the compound `COCC1(OP(=O)(O)O)CCN(c2c(F)cc(N3C[C@H](CNC(C)=O)OC3=O)cc2F)CC1`, the melting point is greater than 140 °C. The figure for `c1cncc(-c2ccsc2)c1` is 75 to 77 °C; for `N#CCC(=NC#N)N1CCCC1` it is 45 °C. As for `COC(=O)c1ccc2c(c1)S(=O)(=O)c1ccccc1N=C2`, the figure is 181 to 182 °C.

In the case of `CCOC(=O)c1nccc(C#N)c1N`, the melting point was 114 to 116 °C.

As to `CC(C)CCOc1c(-c2ccc(S(C)(=O)=O)cc2)cnn(-c2ccc(F)cc2)c1=O`, the melting point lay within 117 to 120 °C.

In the case of `O=C(NC(=O)c1c(F)cccc1F)Nc1ccc(Br)cn1`, the melting point lay in the range of 232 to 235 °C. `NCCCn1cc(-c2cc3nccnc3[nH]2)c2ccccc21` had a melting point of 170 °C.

`C=C(C)COc1ccc(Br)cc1CN(CC)c1ccc(C(=O)NS(=O)(=O)c2ccccc2)cn1` had a melting point of 193 °C. In turn, `COC(=O)c1ccc([C@H](C)NC(C)=O)cc1` registered a melting point of 125 to 127 °C. The figure for `CSc1cc(Oc2cccc(C(F)(F)F)c2)nc(C(=O)O)c1` is 54 to 57 °C; for `O=S1C(Cl)=C(Cl)CN1C1CCCCC1` (centres undefined) it is 115 to 116 °C. The figure for `CSC1=Nc2cc(Cl)ccc2Nc2cscc21` is 111 to 113 °C; for `CC(C)(C)c1ccc(S(=O)(=O)Nc2ncnc(Cl)c2Oc2ccccc2)cc1` it is 143 to 144 °C; for `C[C@H](NC(=O)c1cc(Cl)cnc1Oc1ccc(F)cc1)c1ccc(C(=O)O)cc1` it is 198 °C. The figure for `CN1CCC(C2(O)CC(c3ccc(F)cc3)c3ccc(F)cc32)CC1` (centres undefined) is 146 to 147 °C.

`Cn1ccc2ncnc(Oc3ccc(NC(=O)Nc4cccc(C(F)(F)F)c4)c(Cl)c3)c21` showed a melting point of 192 to 194 °C. As to `COc1ccc(-c2cccc(-c3nc(C(C)C)[nH]c3-c3cccc(C)n3)c2)cc1`, the melting point was 75 to 77 °C. The figure for `CC(C)n1cnc2c(Nc3ccncc3)nc(F)nc21` is 105 to 106 °C.

For the compound `CN1CCC(c2cc(F)ccc2F)(S(=O)(=O)c2ccc(Cl)cc2)CC1`, the melting point lay in the range of 172 to 175 °C.

Compound `COC(=O)c1cc(F)c([N+](=O)[O-])cc1NC(C)=O` showed a melting point of 124 to 126 °C.

For `C#CCN1CCCNC1=C[N+](=O)[O-]`, the melting point was in the range of 157 to 158 °C. Compound `O=C(NCN1CCOCC1)c1cn(-c2ccc(F)cc2)c2cc(-c3ccncc3)ccc2c1=O` showed a melting point of 258 to 260 °C. The figure for `COC1=CC2(C)CCc3c(OC)ccc(OC)c3C2=CC1=O` (centres undefined) is 184 to 186 °C; for `C=CCOc1ccc(OC[C@H]2CC[C@H](C=C)CC2)c(F)c1F` it is 27.3 °C; for `CCSc1cc(C)nc(SCC)c1NC(=O)CCCCCSc1nc2ccccc2[nH]1` it is 139 to 142 °C. The figure for `O=C(O)Cn1cc(Cc2nc3c(F)c(F)cc(F)c3s2)c2cccc(F)c21` is 194 to 196 °C. Take `CCOC(=O)C1CCN(C(=O)c2ccc(/C=C/C(=O)O)cc2)CC1`: the melting point turned out to be 165 °C.

`Cc1cc(OCc2ccccc2)cc(C)c1CC(=O)OCc1ccccc1`: the melting point was 62 to 64 °C. `CCC(=O)NCc1nc(-c2cc(C(C)(C)C)c(O)c(C(C)(C)C)c2)cs1` yielded a melting point of 82 to 83.5 °C. As for `O=C(NCCc1ccccc1)Nc1ccc(CN2C(=O)[C@H]3CCC[C@H]3N(C(=O)CCl)c3ccccc32)cc1` (relative stereo), the figure is 224 to 226 °C.

Turning to `COc1cccc2c1C1CN(C)CCN1c1ccccc1C2O` (centres undefined), the melting point turned out to be 217 °C. In the case of `CC(CNC(=O)c1cccc(Oc2ccccc2)c1)N(O)C(N)=O` (centres undefined), the melting point was in the range of 189 to 190 °C. The figure for `COCCc1nc(Cl)c(CO)[nH]1` is 91 to 95 °C; for `Cc1oc(-c2ccccc2)nc1CCOc1ccc(COc2cc3ccccc3cc2C(=O)O)cc1` it is 135 to 137 °C; for `NC(=O)CNC(=O)COC[C@@H]1CCCN1C(=O)OCc1ccccc1` it is 110 to 111 °C. `Oc1ccc2c(c1)C13CCN(CC4CCC4)C(C2)C1CCOC3` (centres undefined) came in with a melting point of 197 to 198 °C. The figure for `OCc1ccnc(OCc2cn3c(Cl)cccc3n2)c1` is 143 to 144 °C; for `Cc1nc2c(OCc3c(Cl)ccc(N(C)C(=O)CN4C(=O)c5ccccc5C4=O)c3Cl)cccn2c1Br` it is 229 to 230 °C. Compound `CC(=O)NC(CCc1ccc(C(O)CCCCCCc2ccccc2)cc1)(CO[Si](C)(C)C(C)(C)C)CO[Si](C)(C)C(C)(C)C` (centres undefined) showed a melting point of 121 to 122 °C. The figure for `O=c1[nH]c(-c2cccnc2O)nc2ccccc12` is 190 to 192 °C.

As for `O=C(NC1CCC(CCN2CCN(c3nccc4c3CCO4)CC2)CC1)C(O)C(F)(F)F` (racemic), the melting point turned out to be 204 °C.

`COC(=O)c1cccc(Oc2cccc(-c3nn(Cc4ccc(C(F)(F)P(=O)(O)O)c(Cl)c4)c(=Nc4ccc(Cl)c(Cl)c4)s3)c2)c1` came in with a melting point of 137 to 139 °C.

For the compound `NC1CCN(C(=O)c2ccc(-c3[nH]nc4c3C(=O)c3c(NC(=O)NN5CCOCC5)cccc3-4)s2)C1` (centres undefined), the melting point is 201 to 202 °C. As to `O=C(C[N+](=O)[O-])OCCSc1ccccc1`, the melting point lay in the range of 22 to 24 °C. As for `COc1cc(C2=C(c3cc4ccccc4[nH]3)C(=O)NC2=O)cc(OC)c1OC`, the figure is 252 °C.

For the origin of these results see a melting point compilation (Tetko et al.; mined from patent text by program, amines drawn as free bases though some values may be those of a salt).
